Assay results: US20060127914A1 (priority 1999, published 2006)
pIC50: −log10 of the molar value.

How the values were obtained:
[1] = target: T1, α9 alone (homomeric α9 nAChR) (Homo sapiens, UniProt Q9UGM1, N442S); assay: Two electrode voltage clamp recording in Xenopus oocytes injected with α9 alone; format: cell-based
T1 construct: expressed in transfected cells; host or cells: Xenopus laevis oocytes injected with cRNA made from cDNA in pSP64T.GL+
Description: (§1) 5 minutes washout time was allowed between each response. The data is corrected for run-up or run-down and expressed as a percentage of the maximum evoked current. Curves have been fitted using the non-linear curve fitting routine of Graph Pad. The fit is constrained to a lower bound of 0 while the upper bound is unconstrained. The correlation coefficients are R^2=0.9999 and 0.9980 for α9 and α9/α10, respectively.
(§2) Xenopus laevis females were purchased from Blades Biological, UK. The animals were maintained and dissected as described in Gould (1994) Membrane Protein and Expression Systems: a User's Guide Portland Press, London. Stage V or VI oocytes were de-folliculated by incubating with 0.2% collagenase (Sigma) in calcium-free Barth's solution on a vibrating platform set at 8 Hz for 2 hours at 18° C. Oocytes were then maintained in normal Barth's solution (containing 160 IU/ml penicillin and 74 IU/ml streptomycin). On the following day oocytes were injected with 1 to 25 ng cRNA using a Drummond Nanoject and left for at least three days before recording. cRNA was synthesised from cDNAs previously subcloned into the pSP64T.GL+ vector using the SP6 Message Machine Kit (Ambion).
(§3) Two electrode voltage clamp recording was carried out using a TURBO TEC-10CD (NPI Electronic GmbH, D-71732 Tamm, Germany). For current recording oocytes were placed in ND-96 Ringer (containing 96 mM NaCl, 1.8 mM CaCl2, 2 mM KCl, 1 mM MgCl2 and 5 mM HEPES (pH=7.4)) and impaled with two electrodes filled with 3 M KCl and 1 to 2 MΩ tip resistance. Recording were made in oocytes in which the membrane potential stabilised to potentials more negative than −20 mV during a 20 minute stabilisation period.
(§4) α10 nAChR function and pharmacology was investigated in Xenopus oocytes using two electrode voltage clamp techniques.

α9/α10 combination = target: T2, α9/α10 combination (Homo sapiens, UniProt Q9GZZ6+Q9UGM1, N442S); assay: Two electrode voltage clamp recording in Xenopus oocytes injected with α9 plus α10; format: cell-based
T2 construct: expressed in transfected cells; host or cells: Xenopus laevis oocytes injected with cRNA made from cDNAs in pSP64T.GL+
Description: as §1, §2, §3, §4

[2] = read-out: IC50 for inhibition of ACh-evoked response

T1 sequence (Q9UGM1 23-479 N442S): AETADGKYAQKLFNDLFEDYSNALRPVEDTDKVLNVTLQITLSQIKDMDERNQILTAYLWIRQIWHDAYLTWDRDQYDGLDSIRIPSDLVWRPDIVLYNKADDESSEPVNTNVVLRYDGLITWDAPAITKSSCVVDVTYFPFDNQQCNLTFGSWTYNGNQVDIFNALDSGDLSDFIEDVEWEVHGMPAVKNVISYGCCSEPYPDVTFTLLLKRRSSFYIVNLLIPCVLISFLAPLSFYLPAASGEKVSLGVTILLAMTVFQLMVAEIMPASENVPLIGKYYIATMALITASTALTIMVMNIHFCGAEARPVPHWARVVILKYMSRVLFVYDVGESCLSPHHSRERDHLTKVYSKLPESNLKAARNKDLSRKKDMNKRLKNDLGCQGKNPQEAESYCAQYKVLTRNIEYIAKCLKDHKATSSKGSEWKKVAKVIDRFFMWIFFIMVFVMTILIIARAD
T2 sequence (Q9GZZ6 25-450): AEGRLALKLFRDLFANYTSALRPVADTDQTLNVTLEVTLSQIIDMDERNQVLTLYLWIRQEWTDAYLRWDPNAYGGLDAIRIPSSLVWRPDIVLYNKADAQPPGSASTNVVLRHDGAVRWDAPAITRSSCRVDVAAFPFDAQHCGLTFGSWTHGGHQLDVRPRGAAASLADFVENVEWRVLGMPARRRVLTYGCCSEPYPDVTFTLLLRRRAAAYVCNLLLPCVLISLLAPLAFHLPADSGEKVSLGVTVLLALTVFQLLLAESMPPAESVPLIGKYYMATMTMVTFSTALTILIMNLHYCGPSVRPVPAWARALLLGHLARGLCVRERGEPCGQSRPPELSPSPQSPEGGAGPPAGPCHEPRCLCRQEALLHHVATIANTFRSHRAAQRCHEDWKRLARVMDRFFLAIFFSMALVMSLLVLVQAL
T2 sequence (Q9UGM1 23-479 N442S): as the sequence (Q9UGM1 23-479 N442S) above

| Compound | proportional increase in area-under-the curve for normalised responses ([1]; 30 s ACh application compared to 10 s application, α9 alone, N=2) [%] | proportional increase in area-under-the curve for normalised responses (α9/α10 combination; 30 s ACh application compared to 10 s application, α9/α10, N=2) [%] | Hill coefficient of inhibition curve [1] | pIC50 [1, 2] | Hill coefficient of inhibition curve (α9/α10 combination) | pIC50 (α9/α10 combination; [2]) |
| --- | --- | --- | --- | --- | --- | --- |
| CC(=O)OCC[N+](C)(C)C [ACh, acetylcholine] | 82 | 44 | – | – | – | – |
| α-bungarotoxin [α-Btx] | – | – | −1.25 | 8.57 | −0.89 | 8.43 |
